# Results reported in ChEMBL document CHEMBL2440069, “Synthesis and biological evaluation of direct thrombin inhibitors bearing 4-(piperidin-1-yl)pyridine at the P1 position with potent anticoagulant activity” (J Med Chem, 2013).
# Key:
# Coagulation factor X = Coagulation factor X (Homo sapiens, UniProt P00742); experiment: Inhibition of human factor 10a using Z-D-Arg-Gly-Arg-p-NA as substrate by chromogenic assay
# Prothrombin [1] = target: Prothrombin (Bos taurus, UniProt P00735); experiment: Inhibition of bovine thrombin using D-Phe-Pip-Arg-p-NA as substrate by chromogenic assay
# [2] = 1-octanol-water partition coefficient, log D of the compound; assay type: physicochemical
# [3] = 1-octanol-water partition coefficient, log P of the neutral form compound by HILIC analysis; assay type: physicochemical
# Plasma = experiment: Anticoagulant activity in human plasma assessed as concentration required to double activated […] time; assay type: functional
# Chymotrypsinogen A = Chymotrypsinogen A (Bos taurus, UniProt P00766); experiment: Inhibition of bovine alpha-chymotrypsin using N-succinyl-Ala-Ala-Pro-Phe-p-NA as substrate by chromogenic assay
# [4] = Permeability of the compound at pH 6.8 by PAMPA assay; assay type: ADME
# [5] = Dissociation constant, pKa of the compound by potentiometric titration; assay type: physicochemical
# Neutrophil elastase = target: T1, Neutrophil elastase (Homo sapiens, UniProt P08246); experiment: Inhibition of human neutrophil leukocyte elastase using N-(methoxysuccinyl)-Ala-Ala-Pro-Val-p-NA as substrate by chromogenic assay
# T1 sequence (P08246 whole entry): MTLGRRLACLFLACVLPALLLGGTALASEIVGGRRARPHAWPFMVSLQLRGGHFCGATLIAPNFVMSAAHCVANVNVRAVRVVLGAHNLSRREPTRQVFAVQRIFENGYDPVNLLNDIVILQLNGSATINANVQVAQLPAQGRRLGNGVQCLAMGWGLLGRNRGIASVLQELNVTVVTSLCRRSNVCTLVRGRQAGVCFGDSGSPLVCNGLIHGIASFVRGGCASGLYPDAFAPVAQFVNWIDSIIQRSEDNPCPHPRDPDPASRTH
# [6] = Inhibition of bovine pancreatic trypsin using D-Phe-Pip-Arg-p-NA as substrate by chromogenic assay; design: species or system Bos taurus
# Coagulation factor VII = target: T2, Coagulation factor VII (Homo sapiens, UniProt P08709); experiment: Inhibition of human recombinant factor 7a using spectrozyme as substrate by chromogenic assay
# T2 sequence (P08709 whole entry): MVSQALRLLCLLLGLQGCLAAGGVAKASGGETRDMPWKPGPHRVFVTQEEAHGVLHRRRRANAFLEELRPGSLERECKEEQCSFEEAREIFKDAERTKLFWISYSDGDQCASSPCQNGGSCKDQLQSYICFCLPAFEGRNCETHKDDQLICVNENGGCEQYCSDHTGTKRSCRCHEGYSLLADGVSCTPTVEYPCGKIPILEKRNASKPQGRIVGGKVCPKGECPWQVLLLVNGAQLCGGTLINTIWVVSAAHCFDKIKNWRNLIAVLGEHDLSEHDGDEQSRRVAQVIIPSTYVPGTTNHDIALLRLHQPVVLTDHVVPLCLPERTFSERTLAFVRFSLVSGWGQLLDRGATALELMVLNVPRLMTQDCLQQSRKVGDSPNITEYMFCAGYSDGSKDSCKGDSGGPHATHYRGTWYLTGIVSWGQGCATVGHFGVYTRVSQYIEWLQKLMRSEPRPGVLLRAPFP
# Prothrombin [7] = target: Prothrombin (Homo sapiens, UniProt P00734); experiment: Inhibition of human thrombin using D-Phe-Pip-Arg-p-NA as substrate by chromogenic assay
# Mus musculus [8] = experiment: Ex vivo anticoagulant activity in CD1 mouse plasma assessed as activated partial thromboplastin time at 100 mg/kg, po after 2 hrs; assay type: functional
# Mus musculus [9] = experiment: Ex vivo anticoagulant activity in CD1 mouse plasma assessed as activated partial thromboplastin time at 100 mg/kg, po after 1 hr; assay type: functional
# [10] = Permeability of the compound at pH 8 by PAMPA assay; assay type: ADME
# Chain of Coagulation factor X (P00742 41-179 limits assumed): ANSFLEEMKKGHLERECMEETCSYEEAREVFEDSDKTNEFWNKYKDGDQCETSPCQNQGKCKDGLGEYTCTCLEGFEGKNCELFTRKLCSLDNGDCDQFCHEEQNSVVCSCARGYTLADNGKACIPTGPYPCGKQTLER
# Chain of Coagulation factor X (P00742 235-488 limits assumed): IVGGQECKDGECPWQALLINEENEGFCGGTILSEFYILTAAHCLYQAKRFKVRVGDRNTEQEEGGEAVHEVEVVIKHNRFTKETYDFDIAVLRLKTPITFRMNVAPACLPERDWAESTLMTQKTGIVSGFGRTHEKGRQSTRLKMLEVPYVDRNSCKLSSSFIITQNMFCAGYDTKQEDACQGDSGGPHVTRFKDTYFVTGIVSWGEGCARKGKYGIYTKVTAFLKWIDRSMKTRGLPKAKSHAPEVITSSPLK
SMILES,Ki (Coagulation factor X),Ki (Prothrombin [1]; read-out: Ki),pKa [5],other results
O=C(Nc1ccccc1OCc1cccc(F)c1)C1CCN(c2ccncc2)CC1,> 250 µM,> 250 µM,–,–
Fc1cccc(COc2cccc(NCC3CCN(c4ccncc4)CC3)c2)c1,3.83 µM,> 250 µM,–,–
O=C(Nc1cccc(CCc2cccc(F)c2)c1)C1CCN(c2ccncc2)CC1,44.1 µM,12.4 µM,–,logD [2]: 3.58; Ki (Prothrombin [1]; read-out: pKi (converted)): 12.3 µM
O=C(Nc1cccc(COc2cccc(F)c2)c1)C1CCN(c2ccncc2)CC1,> 250 µM,18.2 µM,–,logD [2]: 3.02
CN(C(=O)C1CCN(c2ccncc2)CC1)c1cccc(OCc2cccc(F)c2)c1,23.6 µM,> 250 µM,–,–
COc1ccc(COc2cccc(NC(=O)C3CCN(c4ccncc4)CC3)c2)cc1,11.1 µM,2.03 µM,–,–
CN(C)Cc1ccc(COc2cccc(NC(=O)C3CCN(c4ccncc4)CC3)c2)cc1,12.2 µM,8.19 µM,–,–
Nc1cccc(COc2cccc(NC(=O)C3CCN(c4ccncc4)CC3)c2)c1,36.1 µM,13.3 µM,–,–
Nc1ccc(COc2cccc(NC(=O)C3CCN(c4ccncc4)CC3)c2)cc1,25 µM,10 µM,–,–
O=C(Nc1cccc(OCc2ccc(C(F)(F)F)cc2)c1)C1CCN(c2ccncc2)CC1,48.5 µM,3.4 µM,–,–
CS(=O)(=O)c1cccc(COc2cccc(NC(=O)C3CCN(c4ccncc4)CC3)c2)c1,15.6 µM,15.9 µM,–,–
CS(=O)(=O)c1ccccc1COc1cccc(NC(=O)C2CCN(c3ccncc3)CC2)c1,35.1 µM,12.3 µM,–,–
O=C(Nc1cccc(OCc2cccc([N+](=O)[O-])c2)c1)C1CCN(c2ccncc2)CC1,6.73 µM,26.8 µM,–,–
O=C(Nc1cccc(OCc2ccc([N+](=O)[O-])cc2)c1)C1CCN(c2ccncc2)CC1,6 µM,5.85 µM,–,–
O=C(Nc1cccc(OCc2cccc(Br)c2)c1)C1CCN(c2ccncc2)CC1,6.31 µM,20.9 µM,–,–
O=C(Nc1cccc(OCc2ccc(Br)cc2)c1)C1CCN(c2ccncc2)CC1,37.1 µM,2.03 µM,–,–
O=C(Nc1cccc(OCc2ccc(F)cc2F)c1)C1CCN(c2ccncc2)CC1,8.8 µM,4.64 µM,–,–
O=C(Nc1cccc(OCc2ccc(F)cc2)c1)C1CCN(c2ccncc2)CC1,–,–,8.9,logP [3]: 5.1; 2aPTT (Plasma): 59 µM; Ki (Neutrophil elastase): 68.7 µM; Ki [6]: > 250 µM; Ki (Chymotrypsinogen A): 71.6 µM; Ki (Coagulation factor VII): > 250 µM; Ki (Prothrombin [7]): 14 nM
Nc1ccc(N2CCC(C(=O)Nc3cccc(OCc4ccc(F)cc4)c3)CC2)cc1,63.5 µM,> 250 µM,3,–
O=C(Nc1cccc(OCc2ccccc2)c1)C1CCN(c2ccncc2)CC1,7.46 µM,39.5 µM,–,–
O=C(Nc1cccc(OCc2ccc(F)cc2)c1)C1CCN(c2ccccn2)CC1,78 µM,> 250 µM,8.5,–
O=C(Nc1cccc(OCc2ccc(F)cc2)c1)C1CCN(c2ncccn2)CC1,91.6 µM,26.8 µM,6,log Pe [10]: impermeable; log Pe [4]: impermeable
CC(C)N1CCC(C(=O)Nc2cccc(OCc3ccc(F)cc3)c2)CC1,> 250 µM,> 250 µM,9.4,–
O=C(Nc1cccc(OCc2ccc(F)cc2)c1)C1CCN(Cc2ccncc2)CC1,47.1 µM,15.3 µM,3.3,log Pe [10]: impermeable; log Pe [4]: impermeable
CC(=N)N1CCC(C(=O)Nc2cccc(OCc3ccc(F)cc3)c2)CC1,57.3 µM,> 250 µM,–,–
O=C(Nc1cccc(OCc2ccc(F)cc2)c1)C1CCNCC1,–,–,9.8,–

# The remaining compounds from weak to strong by Ki (Prothrombin [1]; read-out: Ki), led by results:
Ki (Coagulation factor X),Ki (Prothrombin [1]; read-out: Ki),pKa [5],SMILES,other results
16.4 µM,1.3 µM,–,COc1ccccc1COc1cccc(NC(=O)C2CCN(c3ccncc3)CC2)c1,–
7.23 µM,1.15 µM,–,COc1cccc(COc2cccc(NC(=O)C3CCN(c4ccncc4)CC3)c2)c1,–
2.14 µM,0.488 µM,–,O=C(Nc1cccc(OCCc2cccc(F)c2)c1)C1CCN(c2ccncc2)CC1,Ki (Prothrombin [1]; read-out: pKi (converted)): 18.2 µM
29.6 µM,0.26 µM,–,O=C(Nc1cccc(OCc2ccc(Cl)cc2)c1)C1CCN(c2ccncc2)CC1,–
> 250 µM,0.156 µM,–,O=C(Nc1cccc(OCc2cccc(Cl)c2)c1)C1CCN(c2ccncc2)CC1,–
7.73 µM,0.124 µM,9.1,CS(=O)(=O)c1ccc(COc2cccc(NC(=O)C3CCN(c4ccncc4)CC3)c2)cc1,logP [3]: 4.9; 2aPTT (Plasma): 98.2 µM; Ki (Chymotrypsinogen A): > 250 µM
126 µM,0.083 µM,8.9,COc1cc(COc2cccc(NC(=O)C3CCN(c4ccncc4)CC3)c2)cc(OC)c1,logP [3]: 4.9; 2aPTT (Plasma): 200 µM; Ki (Chymotrypsinogen A): 33.8 µM
6.83 µM,0.064 µM,9.2,O=C(Nc1cccc(OCc2ccccc2F)c1)C1CCN(c2ccncc2)CC1,logP [3]: 4.9; 2aPTT (Plasma): 19.8 µM; Ki (Neutrophil elastase): > 250 µM; Ki [6]: 27 µM; Ki (Chymotrypsinogen A): 71.6 µM; Ki (Coagulation factor VII): > 250 µM; Ki (Prothrombin [7]): 90 nM
27 µM,0.063 µM,9.2,O=C(Nc1cccc(OCc2cc(F)cc(F)c2)c1)C1CCN(c2ccncc2)CC1,logP [3]: 5.2; 2aPTT (Plasma): 26.3 µM; Ki (Neutrophil elastase): > 250 µM; Ki [6]: > 250 µM; Ki (Chymotrypsinogen A): 31.4 µM; Ki (Coagulation factor VII): > 250 µM; Ki (Prothrombin [7]): 31 nM
3.72 µM,0.053 µM,9.1,O=C(Nc1cccc(OCc2ccc3c(c2)OCO3)c1)C1CCN(c2ccncc2)CC1,logP [3]: 4.9; 2aPTT (Plasma): >200 µM; Ki (Chymotrypsinogen A): > 250 µM; log Pe [4]: impermeable
0.606 µM,0.031 µM,9.2,COc1ccc(COc2cccc(NC(=O)C3CCN(c4ccncc4)CC3)c2)cc1OC,logP [3]: 4.9; 2aPTT (Plasma): 154 µM; Ki (Neutrophil elastase): > 250 µM; Ki [6]: 27 µM; Ki (Chymotrypsinogen A): 71.5 µM; Ki (Coagulation factor VII): > 250 µM; Ki (Prothrombin [7]): 755 nM
–,0.006 µM,9,O=C(Nc1cccc(OCc2cccc(F)c2)c1)C1CCN(c2ccncc2)CC1,Activity (Mus musculus [8]): 43%; Activity (Mus musculus [9]): 36%; logP [3]: 5; 2aPTT (Plasma): 6.6 µM; Ki (Neutrophil elastase): 11.3 µM; Ki [6]: > 250 µM; Ki (Chymotrypsinogen A): 6.6 µM; Ki (Coagulation factor VII): > 250 µM; Ki (Prothrombin [7]): 16 nM; logD [2]: 3.14
